According to ChEMBL document CHEMBL4038345, “Design, Synthesis, and Biological Evaluation of Novel Selenium-Containing Isocombretastatins and Phenstatins as Antitumor Agents” (J Med Chem, 2017):
Calls of active or inactive are those of the source. The calls are words filed in the database; no cut-off is given here.

Columns and labels:
A549 [1] = test: Induction of apoptosis in human A549 cells assessed as live cells at 5 nM for 24 hrs by annexin V-FITC/propidium iodide staining-based flow cytometry analysis (reference value: 99.15%); format: functional
A549 [2] = test: Induction of apoptosis in human A549 cells assessed as necrotic cells at 5 nM for 24 hrs by annexin V-FITC/propidium iodide staining-based flow cytometry analysis (reference value: 0.03%); format: functional
LoVo = test: Antiproliferative activity against human LoVo cells after 48 hrs by MTT assay
MGC-803 = test: Antiproliferative activity against human MGC803 cells after 48 hrs by MTT assay; details: MGC-803, 48 h
A549/CDDP = test: Antiproliferative activity against human A549/CDDP cells after 48 hrs by MTT assay; format: functional, cell-based
[3] = Antiproliferative activity against human HepG2/DOX cells after 48 hrs by MTT assay; format: functional, cell-based
[4] = Resistance index, ratio of IC50 for human HepG2/DOX cells to IC50 for human HepG2 cells; format: functional
A549 [5] = test: Induction of apoptosis in human A549 cells assessed as necrotic cells at 1 nM for 24 hrs by annexin V-FITC/propidium iodide staining-based flow cytometry analysis (reference value: 0.03%); format: functional
A549 [6] = test: Induction of apoptosis in human A549 cells assessed as early apoptotic cells at 1 nM for 24 hrs by annexin V-FITC/propidium iodide staining-based flow cytometry analysis (reference value: 0.82%); format: functional
A549 [7] = test: Induction of apoptosis in human A549 cells assessed as late apoptotic cells at 1 nM for 24 hrs by annexin V-FITC/propidium iodide staining-based flow cytometry analysis; format: functional
A549 [8] = test: Induction of apoptosis in human A549 cells assessed as late apoptotic cells at 5 nM for 24 hrs by annexin V-FITC/propidium iodide staining-based flow cytometry analysis; format: functional
A549 [9] = test: Induction of apoptosis in human A549 cells assessed as live cells at 10 nM for 24 hrs by annexin V-FITC/propidium iodide staining-based flow cytometry analysis (reference value: 99.15%); format: functional
A549 [10] = test: Induction of apoptosis in human A549 cells assessed as early apoptotic cells at 10 nM for 24 hrs by annexin V-FITC/propidium iodide staining-based flow cytometry analysis (reference value: 0.82%); format: functional
A549 [11] = test: Induction of apoptosis in human A549 cells assessed as late apoptotic cells at 10 nM for 24 hrs by annexin V-FITC/propidium iodide staining-based flow cytometry analysis; format: functional
A549 [12] = test: Induction of apoptosis in human A549 cells assessed as necrotic cells at 1 nM for 48 hrs by annexin V-FITC/propidium iodide staining-based flow cytometry analysis (reference value: 0.02%); format: functional
A549 [13] = test: Induction of apoptosis in human A549 cells assessed as early apoptotic cells at 1 nM for 48 hrs by annexin V-FITC/propidium iodide staining-based flow cytometry analysis (reference value: 0.97%); format: functional
A549 [14] = test: Induction of apoptosis in human A549 cells assessed as late apoptotic cells at 1 nM for 48 hrs by annexin V-FITC/propidium iodide staining-based flow cytometry analysis; format: functional
A549 [15] = test: Induction of apoptosis in human A549 cells assessed as necrotic cells at 5 nM for 48 hrs by annexin V-FITC/propidium iodide staining-based flow cytometry analysis (reference value: 0.02%); format: functional
A549 [16] = test: Induction of apoptosis in human A549 cells assessed as live cells at 5 nM for 48 hrs by annexin V-FITC/propidium iodide staining-based flow cytometry analysis (reference value: 99.01%); format: functional
A549 [17] = test: Induction of apoptosis in human A549 cells assessed as early apoptotic cells at 5 nM for 48 hrs by annexin V-FITC/propidium iodide staining-based flow cytometry analysis (reference value: 0.97%); format: functional
A549 [18] = test: Induction of apoptosis in human A549 cells assessed as necrotic cells at 10 nM for 48 hrs by annexin V-FITC/propidium iodide staining-based flow cytometry analysis (reference value: 0.02%); format: functional
A549 [19] = test: Induction of apoptosis in human A549 cells assessed as live cells at 10 nM for 48 hrs by annexin V-FITC/propidium iodide staining-based flow cytometry analysis (reference value: 99.01%); format: functional
[20] = Metabolic stability in Sprague-Dawley rat liver microsomes assessed as compound remaining after 30 mins in presence of NADPH by UV-based HPLC-MS/MS analysis; format: ADME, microsome; details: read-out: Stability
[21] = Metabolic stability in Sprague-Dawley rat liver microsomes assessed as compound remaining after 90 mins in presence of NADPH by UV-based HPLC-MS/MS analysis; format: ADME, microsome; details: read-out: Stability
[22] = Metabolic stability in Sprague-Dawley rat liver microsomes assessed as compound remaining after 120 mins in presence of NADPH by UV-based HPLC-MS/MS analysis; format: ADME, microsome; details: read-out: Stability
[23] = Metabolic stability in Sprague-Dawley rat liver microsomes assessed as compound remaining after 150 mins in presence of NADPH by UV-based HPLC-MS/MS analysis; format: ADME, microsome; details: Sprague-Dawley, liver microsomes, read-out: Stability
[24] = Half life in Sprague-Dawley rat by UV-based HPLC-MS/MS analysis; format: ADME; details: in vivo
[25] = (§1) Inhibition of porcine brain tubulin polymerization measured every 60 seconds for 90 mins by DAPI staining-based fluorescence assay; set-up: species or system Sus scrofa
Sus scrofa = organism: Sus scrofa; test: as §1
A549 [26] = test: Induction of microtubule disruption in human A549 cells at 5 to 10 nM after 8 to 24 hrs by Hoechst 33342 staining-based laser scanning confocal immunofluorescence microscopic analysis; format: cell-based
A549 [27] = test: Disruption of mitochondrial membrane potential in human A549 cells at 1 nM after 24 hrs by JC1 staining-based flow cytometry method (reference value: 0.62%); format: functional
A549 [28] = test: Disruption of mitochondrial membrane potential in human A549 cells assessed as intact mitochondrial membrane at 5 nM after 24 hrs by JC1 staining-based flow cytometry method (reference value: 99.18%); format: functional
A549 [29] = test: Disruption of mitochondrial membrane potential in human A549 cells at 10 nM after 24 hrs by JC1 staining-based flow cytometry method (reference value: 0.62%); format: functional
A549 [30] = test: Disruption of mitochondrial membrane potential in human A549 cells after 24 hrs by JC1 staining-based flow cytometry method; format: functional, cell-based
A549 [31] = test: Disruption of mitochondrial membrane potential in human A549 cells at 1 to 10 nM after 24 hrs by JC1/Hoechst 33342 staining-based fluorescence microscopic method; format: functional, cell-based
A549 [32] = test: Induction of apoptosis in human A549 cells assessed as downregulation of Bcl2 expression at 1 to 10 nM after 24 to 48 hrs by Western blot analysis; format: functional, cell-based
A549 [33] = test: Cell cycle arrest in human A549 cells assessed as increase in accumulation of cells at G2/M phase at 5 to 10 nM after 24 hrs by propidium iodide staining-based flow cytometry method; format: functional
A549 [34] = test: cells; details: Homo sapiens, A549, 48 h
HepG2 = test: cells; details: Homo sapiens, HepG2, 48 h
HCT-116 = test: cells; details: Homo sapiens, HCT-116, 48 h

Structure (SMILES): C=C(c1ccc(OC)c(O)c1)c1cc(OC)c(OC)c([Se]C)c1
- Activity (A549 [1]): 64.43%
- Activity (A549 [2]): 1.69%
- IC50 (LoVo): 9 nM
- IC50 (MGC-803): 9 nM
- IC50 (A549/CDDP): 34.4 nM
- IC50 [3]: 20.3 nM
- Ratio IC50 [4]: 6.8
- Activity (A549 [5]): 0.2%
- Activity (A549 [6]): 3.63%
- Activity (A549 [7]): 0.01%
- Activity (A549 [8]): 2.52%
- Activity (A549 [9]): 48.49%
- Activity (A549 [10]): 49.48%
- Activity (A549 [11]): 1.45%
- Activity (A549 [12]): 0.86%
- Activity (A549 [13]): 15.79%
- Activity (A549 [14]): 2.86%
- Activity (A549 [15]): 10.45%
- Activity (A549 [16]): 49.13%
- Activity (A549 [17]): 15.69%
- Activity (A549 [18]): 13.55%
- Activity (A549 [19]): 23.45%
- remaining at 0.5 h [20]: 81.1%
- remaining at 1.5 h [21]: 44.1%
- remaining at 2 h [22]: 33.4%
- remaining at 2.5 h [23]: 25.8%
- half-life [24]: 1.24 h
- IC50 [25]: 1380 nM
- inhibition (Sus scrofa): Dose-dependent effect
- Activity (A549 [26]): Active
- Activity (A549 [27]): 12.78%
- Activity (A549 [28]): 57.63%
- Activity (A549 [29]): 90.78%
- Activity (A549 [30]): Dose-dependent effect
- Activity (A549 [31]): Active
- Activity (A549 [32]): Active
- Activity (A549 [33]): 70%
- IC50 (A549 [34]): 3.9 nM
- IC50 (HepG2): 3 nM
- IC50 (HCT-116): 12 nM
